Measurements published in article PMC9377236, “Cytotoxic effects of extracts obtained from plants of the Oleaceae family: bio-guided isolation and molecular docking of new secoiridoids from Jasminum humile” (Pharmaceutical Biology, 2022).
In brackets after ≈: the same amount, converted by molar mass.

What was measured:
[1] = tested on: MCF-7 cell line; experiment: MTT cytotoxicity assay, MCF-7; format: cell-based, human; conditions: for IC50: Homo sapiens, MCF7, MCF-7 breast cancer cell line, MTT assay, mean ± SD; for SI, MCF-7: selectivity index = CC50 (Vero) / IC50 (MCF-7)
Method: (§1) The cytotoxic potential was measured against Vero cells as well as MCF-7, HepG-2, and THP-1 cell lines provided from VACSERA, Agouza, Cairo, Egypt using a microplate 3-(4,5-dimethythiazole-2yl)-2,5-diphenyl-tetrazolium bromide (MTT) method (Ashour et al. [2006]; Njeru and Muema [2007]). All experiments were repeated three times with doxorubicin (Sigma, USA) as a positive control and 0.1% DMSO media as the negative control, respectively.
(§2) The selectivity index (SI) was obtained after dividing the IC50 value of Vero cells (which can be expressed as CC50) by the specific IC50 of cancer cell lines. High (SI) indicates high anticancer activity and low cellular toxicity. Selectivity was considered to be valuable for those with (SI) greater than three (Oliveira et al. [2015]; Tsemeugne et al. [2021]; Yousefbeyk et al. [2022]).
(§3) All statistical analyses were performed using GraphPad Prism version 9.2.0 to calculate the half-maximal inhibitory concentration (IC50) and the half-maximal cytotoxic concentration (CC50) where the level of significance was set at ([…]). Quantitative data were expressed as mean ± standard deviation (SD). GraphPad Prism version 9.2.0 was also used to create multiple bar charts of the cytotoxic activity and cell viability.

[2] = tested on: HepG-2 cell line; experiment: MTT cytotoxicity assay, HepG-2; format: cell-based, human; conditions: for IC50: Homo sapiens, HepG2, HepG-2 liver cancer cell line, MTT assay, mean ± SD; for SI, HepG-2: selectivity index = CC50 (Vero) / IC50 (HepG-2)
Method: as §1, §2, §3

[3] = tested on: THP-1 cell line; experiment: MTT cytotoxicity assay, THP-1; format: cell-based, human; conditions: for IC50: Homo sapiens, THP-1 leukaemia cell line, MTT assay, mean ± SD; for SI, THP-1: selectivity index = CC50 (Vero) / IC50 (THP-1)
Method: as §1, §2, §3

[4] = MTT assay, cytotoxic concentration (CC50) on Vero cells; format: cell-based; conditions: African green monkey, mean ± SD, three repeats
Method: as §1, §3

CC=C1C(OC)OC=C2C(=O)OC3CC(C(C)CO)C(COC(=O)CC21)C3C (single isomer, unassigned; (-)) [Compound 1, (-)-1-Methoxyjasmigenin]
IC50 [1]: 78.9 ± 1.79 µg/mL (≈ 200 µM) | SI, MCF-7 [1]: 0.78 | IC50 [2]: 59.8 ± 1.45 µg/mL (≈ 152 µM) | SI, HepG-2 [2]: 1.03 | IC50 [3]: 91.5 ± 14.9 µg/mL (≈ 232 µM) | SI, THP-1 [3]: 0.67 | CC50 [4]: 61.7 ± 1.26 µg/mL (≈ 156 µM)

CC(CO)C1CC2OC(=O)C3=COC(C)C(C=O)C3CC(=O)OCC1C2C (single isomer, unassigned; (-)) [Compound 2, (-)-1-Methyl-9-aldojasmigenin]
IC50 [1]: 60.6 ± 2.3 µg/mL (≈ 159 µM) | SI, MCF-7 [1]: 1.00 | IC50 [2]: 43.3 ± 4.78 µg/mL (≈ 114 µM) | SI, HepG-2 [2]: 1.40 | IC50 [3]: 68.9 ± 9.71 µg/mL (≈ 181 µM) | SI, THP-1 [3]: 0.88 | CC50 [4]: 60.5 ± 2.72 µg/mL (≈ 159 µM)

CC=C1C(OC2OC(CO)C(O)C(O)C2O)OC=C2C(=O)OC3CC(C(C)CO)C(COC(=O)CC21)C3C (centres unmarked) [Compound 3, jasminin]
IC50 [1]: 28.6 ± 1.18 µg/mL (≈ 52.7 µM) | SI, MCF-7 [1]: 1.57 | IC50 [2]: 44.2 ± 4.32 µg/mL (≈ 81.5 µM) | SI, HepG-2 [2]: 1.01 | IC50 [3]: 82.7 ± 15.7 µg/mL (≈ 152 µM) | SI, THP-1 [3]: 0.54 | CC50 [4]: 44.7 ± 1.84 µg/mL (≈ 82.4 µM)

CC=C1C(OC2OC(CO)C(O)C(O)C2O)OC=C2C(=O)OCC(C)C3(O)CCC(C)C3COC(=O)CC21 (centres unmarked) [Compound 4, isojasminin]
IC50 [1]: 43.1 ± 3.02 µg/mL (≈ 79.5 µM) | SI, MCF-7 [1]: 2.35 | IC50 [2]: 33.5 ± 2.32 µg/mL (≈ 61.7 µM) | SI, HepG-2 [2]: 3.03 | IC50 [3]: 51.1 ± 10.3 µg/mL (≈ 94.1 µM) | SI, THP-1 [3]: 1.99 | CC50 [4]: 102 ± 3.03 µg/mL (≈ 187 µM)

CC=C1C(OC2OC(CO)C(O)C(O)C2O)OC=C(C(=O)OC)C1CC(=O)OCC(C)C1CC2OC(=O)C3=COC(OC4OC(CO)C(O)C(O)C4O)C(=CC)C3CC(=O)OCC1C2C (centres unmarked) [Compound 5, jasmoside]
IC50 [1]: 41.3 ± 1.77 µg/mL (≈ 44.5 µM) | SI, MCF-7 [1]: 5.09 | IC50 [2]: 66.5 ± 8.15 µg/mL (≈ 71.6 µM) | SI, HepG-2 [2]: 3.16 | IC50 [3]: 27.6 ± 4.63 µg/mL (≈ 29.7 µM) | SI, THP-1 [3]: 7.62 | CC50 [4]: 210 ± 5.05 µg/mL (≈ 226 µM)

O=c1ccc2ccccc2o1 [Compound 6, coumarin]
IC50 [1]: 194 ± 8.8 µg/mL (≈ 1330 µM) | SI, MCF-7 [1]: 1.01 | IC50 [2]: 165 ± 7.08 µg/mL (≈ 1130 µM) | SI, HepG-2 [2]: 1.19 | IC50 [3]: 296 ± 25.7 µg/mL (≈ 2020 µM) | SI, THP-1 [3]: 0.66 | CC50 [4]: 196 ± 13.3 µg/mL (≈ 1340 µM)

OC[C@@H](O)[C@@H](O)[C@H](O)[C@H](O)CO [Compound 7, D-mannitol]
IC50 [1]: 161 ± 11.9 µg/mL (≈ 882 µM) | SI, MCF-7 [1]: 1.09 | IC50 [2]: 69.1 ± 12.3 µg/mL (≈ 379 µM) | SI, HepG-2 [2]: 2.52 | IC50 [3]: 214 ± 22.1 µg/mL (≈ 1180 µM) | SI, THP-1 [3]: 0.81 | CC50 [4]: 173 ± 6.2 µg/mL (≈ 951 µM)

COc1cccc2c1C(=O)c1c(O)c3c(c(O)c1C2=O)C[C@@](O)(C(=O)CO)C[C@@H]3O[C@H]1C[C@H](N)[C@H](O)[C@H](C)O1 [Doxorubicin, doxorubicin, reference compound]
IC50 [1]: 52.8 ± 5.36 µg/mL (≈ 97.1 µM) | SI, MCF-7 [1]: 2.19 | IC50 [2]: 31.6 ± 6.58 µg/mL (≈ 58.2 µM) | SI, HepG-2 [2]: 3.65 | IC50 [3]: 47.8 ± 7.03 µg/mL (≈ 88 µM) | SI, THP-1 [3]: 2.41 | CC50 [4]: 116 ± 6.1 µg/mL (≈ 213 µM)
